The record followed here is ChEMBL document CHEMBL4382266, “Melonoside B and Melonosins A and B, Lipids Containing Multifunctionalized ω-Hydroxy Fatty Acid Amides from the Far Eastern Marine Sponge Melonanchora kobjakovae” (J Nat Prod, 2018).

Each structure is given as a SMILES string. Activity calls are given as the source filed them. The calls are words filed in the database; no cut-off is given here.

Holding throughout (assay type): cell-based
The target in series [1] is Transcription factor Jun (Homo sapiens) (UniProt P05412). In words: Inhibition of AP-1 (unknown origin) expressed in mouse JB6 Cl41 cells after 24 hrs by luciferase reporter gene assay. For orientation: A reporter such as luciferase makes a cellular process visible.
Series [2] is filed under the species Homo sapiens. In words: (§1) Inhibition of NFkB (unknown origin) expressed in mouse JB6 Cl41 cells after 24 hrs by luciferase reporter gene assay.
In series [3] the target is Cellular tumor antigen p53 (Homo sapiens) (UniProt P04637). In words: Inhibition of p53 (unknown origin) expressed in mouse JB6 Cl41 cells after 24 hrs by luciferase reporter gene assay.
The species entered for series [4] is Homo sapiens. Briefly: Inhibition of NFkB (unknown origin) expressed in mouse JB6 Cl41 cells at 25 uM after 24 hrs by luciferase reporter gene assay relative to control.
Series [5] addresses Transcription factor Jun (Homo sapiens) (UniProt P05412). Briefly: Inhibition of AP-1 (unknown origin) expressed in mouse JB6 Cl41 cells at 25 uM after 24 hrs by luciferase reporter gene assay relative to control.
Series [6] can be described thus: Cytotoxicity against mouse JB6 Cl41 cells after 24 hrs assessed as reduction in cell viability at 25 to 37 uM by MTS assay.
Series [7] in a line: as §1. To be noted: Homo sapiens, JB6 Cl41, 24 h.
The nature of series [8]: Cytotoxicity against mouse JB6 Cl41 cells after 24 hrs assessed as reduction in cell viability at 6 to 12 uM by MTS assay. In general terms: Formazan colour is commonly taken as a measure of viable cells.

Broadly, the inhibition is the relative decrease from the control value, in per cent. Broadly, the IC50 is the concentration that gives 50% inhibition. The low end stands for greater potency, the high end for weaker potency.

Sequence of Transcription factor Jun (Homo sapiens) (P05412 whole entry): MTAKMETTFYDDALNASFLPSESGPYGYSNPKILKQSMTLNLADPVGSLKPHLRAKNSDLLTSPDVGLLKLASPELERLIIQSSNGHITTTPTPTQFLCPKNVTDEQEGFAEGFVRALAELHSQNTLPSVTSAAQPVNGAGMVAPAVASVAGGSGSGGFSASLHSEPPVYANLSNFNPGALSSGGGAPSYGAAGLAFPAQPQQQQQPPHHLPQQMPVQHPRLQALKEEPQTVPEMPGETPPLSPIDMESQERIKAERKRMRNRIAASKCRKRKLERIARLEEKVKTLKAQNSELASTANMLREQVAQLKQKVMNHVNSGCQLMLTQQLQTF
Sequence of Cellular tumor antigen p53 (Homo sapiens) (P04637 whole entry, looked up): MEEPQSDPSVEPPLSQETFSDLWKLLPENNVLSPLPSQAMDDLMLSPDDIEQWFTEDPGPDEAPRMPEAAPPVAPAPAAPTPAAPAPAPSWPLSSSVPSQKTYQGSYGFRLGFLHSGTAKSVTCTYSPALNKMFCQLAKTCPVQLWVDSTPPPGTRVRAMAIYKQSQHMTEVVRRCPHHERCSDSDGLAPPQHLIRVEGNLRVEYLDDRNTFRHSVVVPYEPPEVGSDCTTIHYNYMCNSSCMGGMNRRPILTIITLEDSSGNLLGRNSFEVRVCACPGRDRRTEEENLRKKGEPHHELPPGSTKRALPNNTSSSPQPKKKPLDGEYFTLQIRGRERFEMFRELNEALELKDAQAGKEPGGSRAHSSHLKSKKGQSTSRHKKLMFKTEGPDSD

For the molecule `CO[C@@H](CC/C=C\CCCCC(=O)CCCCC(=O)CCCCCCCCCCO[C@@H]1O[C@H](C(=O)O)[C@@H](O)[C@H](O)[C@H]1O)C(=O)NCCc1ccc(O)cc1`, the inhibition result (in series [1]; in the series listed under Homo sapiens [2]; in series [3]) was “inactive” in each case.
As for `CO[C@@H](CC/C=C\CCCCC(=O)CCCCCCC(=O)CC/C=C\CCCCCCO[C@@H]1O[C@H](C(=O)O)[C@@H](O)[C@H](O)[C@H]1O)C(=O)NCCc1ccc(O)cc1`, the inhibition entry (in series [1]; in the series filed under Homo sapiens [2]; in series [3]) was “inactive” each time.
With `CO[C@@H](CC/C=C\CCCCC(=O)CCCCC(=O)CCCCCCCCCCO)C(=O)NCCc1ccc(O)cc1`, the inhibition in the series filed under Homo sapiens [4] came out at 67%; in series [5] it was 87%. Further, in series [3], the inhibition result is “inactive”. Also, in series [6], the Activity result was “Non-Toxic”.
In turn, `CO[C@@H](CC/C=C\CCCCC(=O)CCCCCCC(=O)CC/C=C\CCCCCCO)C(=O)NCCc1ccc(O)cc1` had an IC50 in series [7] of 7.2 µM. Moreover, the Activity entry in series [8] is “Non-Toxic”. In series [3], the inhibition entry was “inactive”.
